These results are taken from ChEMBL document CHEMBL1201862, “PubChem BioAssay data set” (2004).

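Protocol summary: plate cells (96-well), add compound at 5 concentrations, incubate 48 h, interpolate endpoints linearly. At the GI50, growth is halved.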 Active and inactive are the calls of the source. Rule as the data show it: active = GI50 up to about 1.1 µM and inactive = higher.

Common to all, as to assay: NCI tumour cell line growth inhibition, 48 h
The subject of assay [1] is DLD-1.
For assay [2], the system named is DMS-273.
In assay [3] the test system is NCI-H522.
Assay [4] relates to DMS-114.
Assay [5] concerns UACC-62.
The subject of assay [6] is SK-OV-3.
Assay [7] relates to UO-31.
The subject of assay [8] is CAKI-1.
Assay [9] deals with HOP-92.
The test system of assay [10] is M19-MEL.
Assay [11] relates to NCI/ADR-RES.
The test system of assay [12] is A498.
For assay [13], the system named is M14.
Assay [14] concerns 786-0.
For assay [15], the system named is SR.
The subject of assay [16] is ACHN.

In the case of `N[C@@H](CSCSC[C@H](N)C(=O)O)C(=O)O`, the GI50 in assay [1], in [2], in assay [3], in assay [4], in [5] and in [6] was > 225 µM (inactive) each time. The GI50 in assay [7] was > 225 µM (inactive); in assay [8], > 225 µM (inactive); in assay [9] it was > 169 µM (inactive); in [10], > 225 µM (inactive); in assay [11], > 104 µM (inactive); in assay [12], > 225 µM (inactive).
Turning to `Nc1cc(S(=O)(=O)O)cc2cc(S(=O)(=O)O)c(/N=N/c3ccc(-c4ccc(/N=N/c5c(S(=O)(=O)O)cc6cc(S(=O)(=O)O)cc(N)c6c5O)cc4)cc3)c(O)c12`, the GI50 in assay [1], in assay [2], in assay [3], in [4], in assay [6] and in [7] was > 100 µM (inactive) throughout. Further, the GI50 in assay [9] is > 71.9 µM (inactive); in [10], > 100 µM (inactive); in assay [11] it was > 100 µM (inactive); in [12], > 100 µM (inactive).
`CCc1ccc(Nc2cc(=O)[nH]c(=S)n2C)cc1`: the GI50 in [1], in assay [2], in assay [13], in assay [3], in assay [4] and in assay [5] was > 100 µM (inactive) each time. The GI50 in [6], in [7], in assay [8], in assay [14], in assay [9] and in assay [10] was > 100 µM (inactive) in each case. The GI50 in assay [12] and in assay [15] was > 100 µM (inactive) throughout.
Regarding `COc1ccc(/C(Cl)=C(\C=O)c2ccc(OC)cc2)cc1`, the GI50 in [1] is 33.2 µM (inactive); in assay [2] it was 37 µM (inactive); in assay [13], > 100 µM (inactive); in [3], 18.3 µM (inactive); in assay [4] it was > 100 µM (inactive); in assay [5] it was > 100 µM (inactive). For the same compound, the GI50 was > 100 µM (inactive) in [6]; > 100 µM (inactive) in assay [7]; > 100 µM (inactive) in [8]; 93.3 µM (inactive) in assay [10]; > 100 µM (inactive) in assay [12]; 10.8 µM (inactive) in assay [15]. The GI50 in assay [16] was 84.3 µM (inactive).
In the case of `O=CCCn1[nH]c(=O)ccc1=O`, the GI50 in assay [1], in assay [2], in assay [13], in assay [4], in [5] and in assay [7] was > 100 µM (inactive) each time. Besides, the GI50 in assay [8], in assay [14], in [9], in assay [10], in assay [12] and in assay [15] was > 100 µM (inactive) each time. The GI50 in assay [16] was > 100 µM (inactive).
With `CCOCCOc1ccc(OCCOCC)cc1`, the GI50 is 10.1 µM (inactive) in assay [1]; 21.6 µM (inactive) in [2]; 4.51 µM (inactive) in [4]; 19 µM (inactive) in assay [5]; > 81.8 µM (inactive) in assay [6]; 13.6 µM (inactive) in assay [7]. Further, the GI50 in assay [10] was 26 µM (inactive); in [11] it was 16.4 µM (inactive); in [12] it was 36.3 µM (inactive).
For `O=[N+]([O-])c1ccc(C2=Nc3ccccc3SC(c3ccccc3)C2)cc1` (centres undefined), the GI50 in assay [1] was 18.9 µM (inactive); in assay [2], 13.3 µM (inactive); in [13] it was 19.4 µM (inactive); in assay [3], 13.4 µM (inactive); in [4], 18.2 µM (inactive); in [5], 13.7 µM (inactive). Besides, the GI50 was 21 µM (inactive) in assay [6]; 12.9 µM (inactive) in [7]; 17.6 µM (inactive) in assay [8]; 15.4 µM (inactive) in assay [10]; 22.3 µM (inactive) in [12]; 18.2 µM (inactive) in assay [15]. For the same compound, the GI50 in assay [16] is 18.2 µM (inactive).
On to `CSCC(CO)NC(=O)/C=C/c1c(C)[nH]c(=O)[nH]c1=O` (centres undefined), for which the GI50 in assay [1] was 512 µM (inactive); in assay [2] it was > 838 µM (inactive); in assay [3], 45.8 µM (inactive); in [4], 164 µM (inactive); in assay [5] it was > 800 µM (inactive); in [6], 641 µM (inactive). Further, the GI50 in assay [7] was 557 µM (inactive); in assay [8], 91.8 µM (inactive); in assay [9], 318 µM (inactive); in assay [10], 478 µM (inactive); in [11], 621 µM (inactive); in assay [12] it was > 875 µM (inactive).
In the case of `CNc1ccccc1-c1nc2ccccc2c(=O)o1`, the GI50 in assay [1], in assay [2], in assay [13], in [4], in assay [6] and in [7] was > 100 µM (inactive) each time. Moreover, the GI50 in assay [8], in [10], in assay [15] and in [16] was > 100 µM (inactive) throughout.
As to `CC(C)=CC(=O)OC1C2C(C)=CC(O)C(O)C2(C)C2C3(O)OCC24C(CC(=O)OC14)C(C)C3O` (centres undefined), the GI50 is 0.0716 µM (active) in assay [1]; 0.0264 µM (active) in assay [2]; 0.0298 µM (active) in assay [3]; 0.0162 µM (active) in [4]; 0.0649 µM (active) in assay [5]; 3.13 µM (inactive) in assay [6]. The GI50 in assay [7] is 2.32 µM (inactive); in assay [8] it was 2.93 µM (inactive); in assay [9], 0.0552 µM (active); in assay [10] it was 0.034 µM (active); in [11], 17.5 µM (inactive); in assay [12], 1.51 µM (inactive).
For `COC(=O)c1ccc(/C=C2\N=C(C)OC2=O)cc1`, the GI50 in assay [1] is > 100 µM (inactive); in [2], > 100 µM (inactive); in assay [13], > 100 µM (inactive); in assay [3], 59 µM (inactive); in [4] it was > 100 µM (inactive); in assay [5], > 100 µM (inactive). Also, the GI50 in assay [6], in [8], in assay [9], in assay [10], in assay [12] and in assay [16] was > 100 µM (inactive) in each case.
With `CN(C)C(=O)C1CCC(=C2C(=O)OC(C)(C)OC2=O)N1C` (centres undefined), the GI50 in [1], in [2], in assay [13], in [3], in [4] and in [5] was > 100 µM (inactive) throughout. The GI50 in assay [6], in assay [7], in assay [8], in [14], in assay [9] and in [10] was > 100 µM (inactive) in each case. Moreover, the GI50 in assay [12] and in assay [16] was > 100 µM (inactive) in each case.
